Common to all, as to format: cell-based, human
For assay [1], the system named is GCK mutant iPS-derived beta-like cells. The assay is described as follows: Insulin (C-peptide) secretion assay in vitro, GCK mutant beta-like cells. As to conditions: 1 hour, identical to control cells. The protocol: Typically, cells were cultured in 12-well dishes. After 12 days of differentiation, cells were washed for 1 hour in CMRL medium. Cells were then incubated in 300 μl CMRL medium containing 5.6 mM glucose for 1 hour and the medium was collected. Subsequently, 300 μl CMRL medium containing 16.9 mM glucose or other secretagogues was used to treat cells for 1 hour, following which the medium was collected. For in vivo tests, mice were deprived of food overnight with ad libitium access to water. After 12-14 hours of fasting, capillary blood glucose concentrations were determined by tail vein bleed using an AlphaTRACK glucometer (Abbott). Venous blood samples were collected via the submandibular vein. Intraperitoneal glucose was then administered (1 mg/g body weight) and ½ hour later blood samples were obtained via the submandibular vein. Blood samples were kept at room temperature for 2 hours and serum was obtained by centrifuging blood samples at 4000 rpm for 15 min. C-peptide concentrations in medium or mouse serum were measure using an ultrasensitive human C-peptide ELISA kit according to manufacturer's instructions (Mercodia). […]
Typically, cells were cultured in 12-well dishes. […] After 12-14 hours of fasting, capillary blood glucose concentrations were determined by tail bleed using an AlphaTRACK glucometer (Abbott). […]

The test system of assay [2] is control beta cells. The assay is described as follows: UPR, insulin and proinsulin content and ER morphology in control beta cells. As for the experimental part:
(§1) Human ES or iPS cells were dissociated by Dispase (3-5 mins) and Accutase (5 mins, Sigma). Cells were suspended in human ES medium containing 10 μM Y27632, a ROCK inhibitor, and filtered through a 70 μm cell strainer. Then cells were seeded at a density of 800,000 cells/well in 12-well plates. After 1 or 2 days, when cells reached 80-90% confluence, differentiation was started. On Day 1: cells were briefly washed once with RPMI medium, then were treated with Activin A (100 ng/ml), Wnt3A (25 ng/ml) and 0.075 mM EGTA in RPMI medium. On day 2-3: cells were treated with Activin A (100 ng/ml) and 0.2% FBS in RPMI medium. On day 4-5: cells were treated with FGF10 (50 ng/ml), KAAD-cyclopamine (0.25 μM) and 2% FBS in RPMI medium. On day 6-8: cells were treated with FGF10 (50 ng/ml), KAAD-cyclopamine ([…] (2 μM) and LDN-193189 (250 nM), B27 in DMEM medium. On day 9-10: cells were treated with exendin-4 (50 ng/ml), SB431542 (2 μM) and B27 in CMRL medium. On day 11-12, cells were treated with T4 (thyroid hormone, 0.02 nM) and B27 in CMRL medium. After day 12, cells were incubated in CMRL medium with B27. Cells were analyzed between day 14 and day 16.
Wolfram and control iPSCs or fibroblasts were incubated with indicated dosages of thapsigargin (TG) or tunicamycin (TM) (Both were from Sigma) for 6 hours after an overnight starvation. 1 mM Sodium 4-phenylbutyrate (4PBA) (EMD Chemicals Inc.) was administrated one hour prior to and through TG or TM treatment. Cells were harvested and subjected to RNA and protein analysis. In vitro differentiated beta cells were treated with 10 nM TG for 12 hours, or 0.5 μg/ml TM for 6 hours with or without 1 mM 4PBA treatment one hour prior to and through TG or TM treatment. […] GRP78 protein level was determined by western blot using mouse-anti GRP78 antibody (Santa Cruz, sc-166490).
(§2) To determine Insulin or proinsulin content within the cell, differentiated cells were collected and lysed by M-PER protein extraction reagent (Thermo Scientific). Proinsulin and insulin contents were measured by using human proinsulin and insulin ELISA kits (Mercodia). Quantification of positively stained cells was analyzed using Celigo Cytometer system (Cyntellect), and flow cytometry analysis. To normalize insulin content to beta cell number, cultures were dissociated to single cells, and divided into three fractions: 20% of cells for cell number quantification, 40% for RNA analysis and 40% for ELISA assay to determine insulin content.
Differentiated beta cells were treated with or without 10 nM TG for 12 hours, and then fixed in 2.5% glutaraldehyde in 0.1 M Sorenson's buffer (pH 7.2) for one hour. […] The number of granules was determined using ImageJ software.

Assay [3] relates to control beta cells. Kind of assay: In vitro insulin and glucagon secretion assay, control beta cells. As for the experimental part:
(§3) Wolfram and control iPSCs or fibroblasts were incubated with indicated dosages of thapsigargin (TG) or tunicamycin (TM) (Both were from Sigma) for 6 hours after an overnight starvation. 1 mM Sodium 4-phenylbutyrate (4PBA) (EMD Chemicals Inc.) was administrated one hour prior to and through TG or TM treatment. Cells were harvested and subjected to RNA and protein analysis. In vitro differentiated beta cells were treated with 10 nM TG for 12 hours, or 0.5 μg/ml TM for 6 hours with or without 1 mM 4PBA treatment one hour prior to and through TG or TM treatment. For long-term 4PBA treatment, cells were incubated with 1 mM 4PBA starting on day 9 of differentiation, when cells reached pancreatic endoderm stage, and maintained until day 15. Then cells were subjected to insulin secretion, RNA and protein analysis. RNA was isolated using RNAeasy plus kit (Qiagen). cDNA was generated by using RT kit (Promega). Primers for PCR analysis were as follows: XBP-1 for gel-imaging (Lee, Won et al.) forward 5′ […] 3′ (SEQ ID NO:1), reverse 5′ […] 3′ (SEQ ID NO:2); sXBP-1 for QPCR (Merquiol, Uzi et al. 2011) forward 5′ CTGAGTCCGCAGCAGGTG 3′(SEQ ID NO:3), reverse 5′ […] 3′ (SEQ ID NO:4); GRP78 forward 5′ […] 3′(SEQ ID NO:5), reverse 5′ […] 3′ (SEQ ID NO:6); Insulin forward 5′ […] 3′(SEQ ID NO:7), reverse 5′ CAATGCCACGCTTCTGC 3′(SEQ ID NO:8). GRP78 protein level was determined by western blot using mouse-anti GRP78 antibody (Santa Cruz, sc-166490).
(§4) Cells were cultured in 12-well dishes. After 14 days of differentiation, cells were washed for 1 hour in CMRL medium, then incubated in 300 μl CMRL medium containing 5.6 mM glucose for 1 hour and the medium was collected. After that, 300 μl CMRL medium containing 16.9 mM glucose, or 15 mM arginine, or 30 mM potassium, or 1 mM DBcAMP+16.9 mM glucose was used to treat cells for 1 hour and then the medium was collected. Human C-peptide concentration in the medium was measured by ultra-sensitive human C-peptide ELISA kit according to manufacturer's instructions (Mercodia). Glucagon levels in medium were measured by using Glucagon ELISA kit (ALPCO Diagnostics).

The test system of assay [4] is Wolfram iPS cells. Kind of assay: Unfolded protein response (UPR) analysis, Wolfram iPS cells and fibroblasts. As for the experimental part: as §3
Assay [5] relates to control iPS cells. The assay is described as follows: Unfolded protein response (UPR) analysis, control iPS cells. As to conditions: 10 nM TG, 6 hour. The protocol: as §3, with “3′(SEQ ID NO:7), reverse 5′ CAATGCCACGCTTCTGC 3′(SEQ ID NO:8).” left out
Assay [6] deals with Wolfram beta cells. The assay is described as follows: In vitro insulin and glucagon secretion assay, Wolfram beta cells. The protocol:
as §3, §4

The test system of assay [7] is Wolfram beta cells. Kind of assay: UPR, insulin and proinsulin content and ER morphology in Wolfram beta cells. As for the experimental part: as §1, §3, §2
Differentiated beta cells were treated with or without 10 nM TG for 12 hours, and then fixed in 2.5% glutaraldehyde in 0.1 M Sorenson's buffer (pH 7.2) for one hour. Samples were processed and imaged by Dignostic Service, Department of Pathology and Cell Biology, Columbia University. Secretory granule structure and endoplasmic reticulum (ER) morphology were visually recognized. The number of granules was determined using ImageJ software.

The mark [8] stands for this setting: control cells, arginine stimulation, TG treatment.
[9] abbreviates: Wolfram beta cells, TG 10 nM, 12 hours.

2 compounds from US20180237751A1, “METHOD FOR GENERATING BETA CELLS” (THE TRUSTEES OF COLUMBIA UNIVERSITY IN THE CITY OF NEW YORK, priority 2011, published 2018) can be followed below.

On to `COC(=O)C1=C(C)NC(C)=C([N+](=O)[O-])C1c1ccccc1C(F)(F)F` (stereo not drawn) [Bay K8644], for which the “increase in C-peptide release” value is given as 3-5 fold in assay [1] (GCK^G299R/+ and GCK^G299R/hygro cells); 5 fold in assay [1] (GCK^G299R/+ cells).

As for `C/C=C(/C)C(=O)O[C@H]1C(C)=C2[C@H]([C@@H]1OC(=O)CCCCCCC)[C@@](C)(OC(C)=O)C[C@H](OC(=O)CCC)[C@@]1(O)[C@H]2OC(=O)[C@@]1(C)O` [TG, thapsigargin], the “proinsulin to insulin ratio” value in assay [2] (control beta cells challenged with TG, ~0.47 without TG) is given as 0.51; in assay [7] (Wolfram beta cells challenged with TG, ~0.55 without TG), 0.73. The “ER morphology (TEM)” value in assay [2] (control cells, 12 hours of 10 nM TG) is “remained unaffected”; in assay [7] (Wolfram beta cells, 12 hours of 10 nM TG), “greatly dilated”. The production of insulin entry in assay [2] (control cells, TG 10 nM, 12 hours) is “unaffected”. Also, the “increase of insulin output in response to 16.9 mM glucose” value in assay [3] (TG treated control beta cells (10 nM, 12 hour)) was 1.6 fold. For the same compound, the “reduction of stimulated glucagon secretion” value is reported as 28% in assay [3] (setting [8]) and 24% in assay [6] (WFS1 cells, arginine stimulation, TG treatment). Moreover, the “reduction of stimulated insulin secretion” value in assay [3] (setting [8]) is given as −3%; in assay [6] (WFS1 mutant cells, arginine stimulation, TG treatment), 43%. Also, the “increase of GRP78 mRNA” value in assay [4] (Wolfram cells, 10 nM TG, 6 hour) came to 4 fold; in assay [5], 2 fold. In addition, the “GRP78 mRNA level” value in assay [4] (stem cells, increasing concentration of TG, 6 hours) is given as “dose-dependent increase”. In assay [6] (TG treated Wolfram cells (10 nM, 12 hour)), the “insulin secretion in response to 16.9 mM glucose” value was “failed to increase insulin secretion”. Moreover, the “response to DBcAMP (C-peptide secretion)” value in assay [6] (Wolfram beta cells treated with TG, 2.6 without TG) is 1.2 fold. For the same compound, in assay [6] (Wolfram beta cells treated with TG, 3.9 without TG), the “insulin-secretion in response to potassium” value was 2.2 fold. Also, the “fold increase of C-peptide in the medium in response to arginine” value in assay [6] (Wolfram beta cells treated with TG, 4.0 without TG) was determined as 2.3 fold. The “reduction of insulin production at the mRNA level” value in assay [7] (setting [9]) was 46%. For the same compound, in assay [7] (setting [9]), the “reduction of insulin production at the protein level” value is 31%.
